The test addresses HSV-1 ribonucleotide reductase (Human herpesvirus 1, UniProt P08543). As to the kind of experiment: biochemical. An excerpt:
Inhibition of Herpes Simplex Virus (HSV, type 1) Ribonucleotide Reductase
HSV-1 ribonucleotide reductase (partially purified) was obtained from quiescent BHK-21/C13 cells infected with strain F HSV-1 virus at 10 plaque forming units/cell as described by E. A. Cohen et al., J. Gen. Virol., 66, 733 (1985).
The procedure described by P. Gaudreau et al., J. Biol, Chem., 262, 12413 (1987), was employed. […] The number of units of the enzyme preparation used in each assay was constant, based on the specific activity of the enzyme preparation.

SMILES strings stand for the structures. Where a SMILES comes first, the peptide text is derived from it.

Chain of HSV-1 ribonucleotide reductase (P08543 whole entry): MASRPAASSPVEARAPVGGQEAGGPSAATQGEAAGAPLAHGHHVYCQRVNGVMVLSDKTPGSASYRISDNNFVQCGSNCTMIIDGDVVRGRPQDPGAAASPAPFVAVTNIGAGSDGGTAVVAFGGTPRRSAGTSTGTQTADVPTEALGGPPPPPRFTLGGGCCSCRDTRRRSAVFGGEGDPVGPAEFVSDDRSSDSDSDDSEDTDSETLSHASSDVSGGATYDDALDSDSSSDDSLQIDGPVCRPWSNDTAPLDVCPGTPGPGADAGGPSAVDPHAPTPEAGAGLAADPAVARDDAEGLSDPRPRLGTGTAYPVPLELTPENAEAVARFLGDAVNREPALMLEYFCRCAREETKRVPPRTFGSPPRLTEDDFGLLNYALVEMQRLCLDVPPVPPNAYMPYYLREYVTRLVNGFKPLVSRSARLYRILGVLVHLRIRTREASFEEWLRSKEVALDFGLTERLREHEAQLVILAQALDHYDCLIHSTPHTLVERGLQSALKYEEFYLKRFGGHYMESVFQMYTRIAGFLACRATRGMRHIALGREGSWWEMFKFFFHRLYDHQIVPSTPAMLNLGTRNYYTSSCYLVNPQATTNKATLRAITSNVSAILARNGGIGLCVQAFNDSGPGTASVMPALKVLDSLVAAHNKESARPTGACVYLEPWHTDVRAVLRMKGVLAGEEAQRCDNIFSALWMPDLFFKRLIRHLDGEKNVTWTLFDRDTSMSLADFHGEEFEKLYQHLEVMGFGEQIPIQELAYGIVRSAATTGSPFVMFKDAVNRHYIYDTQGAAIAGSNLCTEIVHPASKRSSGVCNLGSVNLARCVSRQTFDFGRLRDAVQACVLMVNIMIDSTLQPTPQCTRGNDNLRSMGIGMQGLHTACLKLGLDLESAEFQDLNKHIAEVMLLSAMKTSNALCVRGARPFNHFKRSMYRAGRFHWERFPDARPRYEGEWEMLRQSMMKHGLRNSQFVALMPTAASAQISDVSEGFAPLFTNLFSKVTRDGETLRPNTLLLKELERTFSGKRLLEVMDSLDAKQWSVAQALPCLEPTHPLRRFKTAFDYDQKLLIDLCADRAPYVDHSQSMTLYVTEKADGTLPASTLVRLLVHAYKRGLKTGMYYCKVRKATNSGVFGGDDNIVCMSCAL

The IC50 is the concentration needed to halve the response being measured. High values mean weaker potency in that assay, low ones greater potency in that assay. For the molecule `CCCCCCCC(=O)C[C@H](NC(=O)[C@@H](NC(=O)C(CC)CC)[C@@H](C)CC)C(=O)N[C@@H](CC(=O)O)C(=O)N[C@@H](CC(C)C)C(=O)O` [2-Ethylbutanoyl-Ile--NHCH(2-oxononyl)-CO--Asp--Leu--OH], 24 µM corresponded to half-maximal inhibition (IC50). This counts as double-digit micromolar.
To `CCCCCCCCCCCC(=O)C[C@H](NC(=O)[C@@H](NC(=O)C(CC)CC)[C@@H](C)CC)C(=O)N[C@@H](CC(=O)O)C(=O)N[C@@H](CC(C)C)C(=O)O` [2-Ethylbutanoyl-Ile--NHCH(2-oxotridecyl)-CO--Asp--Leu--OH] belongs 8.5 µM; to `CCC(CC)C(=O)N[C@H](C(=O)N[C@@H](CC(=O)C1CCCC1)C(=O)N[C@@H](CC(=O)O)C(=O)NCCC(C)(C)C)C(C)(C)C` [2-Ethylbutanoyl-Tbg--NHCH(2-cyclopentyl-2-oxoethyl)-CO--Asp--NHCH2 CH2 C(CH3)3], 23 µM; to `CCCCCC(=O)C[C@H](NC(=O)[C@@H](NC(=O)C(CC)CC)C(C)(C)C)C(=O)N[C@@H](CC(=O)O)C(=O)N[C@@H](CC(C)C)C(=O)O` [2-Ethylbutanoyl-Tbg--NHCH(2-oxoheptyl)-CO--Asp--Leu--OH], 7.5 µM.
As to `CCCCCCCC(=O)C[C@H](NC(=O)[C@@H](NC(=O)C(CC)CC)C(C)(C)C)C(=O)N[C@@H](CC(=O)O)C(=O)N[C@@H](CC(C)C)C(=O)O` [2-Ethylbutanoyl-Tbg--NHCH(2-oxononyl)-CO--Asp--Leu--OH], it took 4.5 µM to reach half-maximal inhibition (IC50). This IC50 is about 1.7-fold lower than that of the molecule before.
To `CCCCCCCC(=O)C[C@H](NC(=O)[C@@H](NC(=O)C(CC)CC)C(C)(C)C)C(=O)N[C@H](C(=O)N[C@@H](CC(C)C)C(=O)O)C(C)(C)C(=O)O` [2-Ethylbutanoyl-Tbg--NHCH(2-oxononyl)-CO--NHCH[C(CH3)2 COOH]--CO--Leu--OH] belongs 1.2 µM; to `CC[C@H](C)[C@H](NC(=O)[C@H](C(C)C)N(C)C(=O)CCc1ccccc1)C(=O)N[C@@H](CC(=O)C1CCCC1)C(=O)N[C@@H](CC(=O)O)C(=O)N[C@@H](CC(C)C)C(=O)O` [PhCH2 CH2 CO--N--Me--Val--Ile--NHCH(2-cyclopentyl-2-oxoethyl)-CO--Asp--Leu--OH] (HELM PEPTIDE1{[O=C(CCc1ccccc1)[*:2]].[meV].I.[O=C(C[C@H](N[*:1])C(=O)[*:2])C1CCCC1].D.L}$$$$V2.0), 0.18 µM.
Consider `CCCCCCCC(=O)C[C@H](NC(=O)[C@@H](NC(=O)[C@H](C(C)C)N(C)C(=O)CCc1ccccc1)[C@@H](C)CC)C(=O)N[C@@H](CC(=O)O)C(=O)N[C@@H](CC(C)C)C(=O)O` [PhCH2 CH2 CO--N--Me--Val--Ile--NHCH(2-oxononyl)-CO--Asp--Leu--OH] (HELM PEPTIDE1{[O=C(CCc1ccccc1)[*:2]].[meV].I.[CCCCCCCC(=O)C[C@H](N[*:1])C(=O)[*:2]].D.L}$$$$V2.0), for which half-maximal inhibition (IC50) was put at 0.42 µM.
Turning to `CC[C@H](C)[C@H](NC(=O)[C@H](C(C)C)N(C)C(=O)CCc1ccccc1)C(=O)N[C@@H](CC(C)=O)C(=O)N[C@@H](CC(=O)O)C(=O)N[C@@H](CC(C)C)C(=O)O` [PhCH2 CH2 CO--N--Me--Val--Ile--NHCH(2-oxopropyl)-CO--Asp--Leu--OH] (HELM PEPTIDE1{[O=C(CCc1ccccc1)[*:2]].[meV].I.[CC(=O)C[C@H](N[*:1])C(=O)[*:2]].D.L}$$$$V2.0), the IC50 was 1.3 µM.
To `CCCCCCCCCCCC(=O)C[C@H](NC(=O)[C@@H](NC(=O)[C@H](C(C)C)N(C)C(=O)CCc1ccccc1)[C@@H](C)CC)C(=O)N[C@@H](CC(=O)O)C(=O)N[C@@H](CC(C)C)C(N)=O` [PhCH2 CH2 CO--N--Me--Val--Ile--NHCH(2-oxotridecyl)-CO--Asp--Leu--NH2] (HELM PEPTIDE1{[O=C(CCc1ccccc1)[*:2]].[meV].I.[CCCCCCCCCCCC(=O)C[C@H](N[*:1])C(=O)[*:2]].D.L.[am]}$$$$V2.0) belongs 6.3 µM.

The values above are taken from patent publication US5700780A, “Antiviral peptide derivatives having a 2-oxoalkyl amino acid side chain” (Boehringer Ingelheim (Canada), Ltd., priority 1989, dated 1997).
